Laboratory results as given in patent publication US8859599B2, “Androgen receptor modulating compounds, preparation and uses thereof” (priority 2009, dated 2014).

Experiments:
[1] = system: DU145; assay: SRB cytotoxicity on DU145 cells; format: cell-based, human; conditions: DU145 cells (no AR), 144 h exposure
Protocol: (§1) Finally, compounds were also tested on HepG2 cells, originally isolated from a primary hepatoblastoma of a child, purchased from ATCC.
(§2) Sulforhodamine B (SRB) assay was used according to the method by Skehan et al. (JNCI, 1990). Briefly, cells were collected by trypsinization, counted and plated at a density of 5,000 cells/well in 96-well flat-bottomed microtiter plates (100 μl of cell suspension/well). In the chemosensitivity assay, experiments were run in octuplicate, and each experiment was repeated three times. The optical density (OD) of cells was determined at a wavelength of 490 nm by a colorimetric plate reader.
(§3) Growth inhibition and cytocidal effect of drugs were calculated according to the formula reported by Monks et al. (JNCI, 1991): [(ODtreated−ODzero)/(ODcontrol−ODzero)]×100%, when ODtreated is > to ODzero. If ODtreated is above ODzero, treatment has induced a cytostatic effect, whereas if ODtreated is below ODzero, cell killing has occurred. The ODzero depicts the cell number at the moment of drug addition, the ODcontrol reflects the cell number in untreated wells and the ODtreated reflects the cell number in treated wells on the day of the assay. TUNEL Assay
(§4) The authors tested the antitumour activity of the compounds also on PC-3 and DU145 cancer cell lines, representative of hormone-refractory prostate cancer due to AR receptor absence.

[2] = system: LNCaP cells; assay: Sulforhodamine B (SRB) in vitro chemosensitivity assay on LNCaP cells; format: cell-based; conditions: for GI50 / LC50: Homo sapiens, LNCaP, 144 h; for GI50: read-out: Growth inhibition (GI50), LNCaP cells, 144 h exposure; for LC50: read-out: cytocidal effects by 50% (LC50), LNCaP cells, 144 h exposure, n.r. = not reached; for cytocidal (cell killing) activity: LNCaP cells, 144 h exposure
Protocol: as §2, §3
The authors examined the antitumour activity of the compounds for which the synthesis is described above, in the hormone-sensitive prostate cancer cell line LNCaP. (R)-Bicalutamide and the novel compounds were tested at the increasing concentrations of […]. The highest dose used was chosen on the basis of the clinically achievable peak plasma concentration reported in the literature for bicalutamide (Cockshott I D. Clin Pharmacokinet. 2004; 43 (13) 855-78).
After 144-hr exposure time, the cytotoxic effect of the molecules was calculated according to the method of Monks et al. (Monks A, et al., J. Nat. Cancer Inst. 1991; 83: 757-66).

[3] = system: LNCaP cells; assay: TUNEL assay of apoptotic cells in LNCaP; format: cell-based, human; conditions: 144-h exposure, 20.0 μM
Protocol: Cells were fixed in 1% paraformaldehyde in PBS on ice for 15 min, suspended in ice cold ethanol (70%) and stored overnight at −20° C. Cells were then washed twice in PBS and resuspended in PBS containing 0.1% Triton X-100 for 5 min at 4° C. Thereafter, samples were incubated in 50 μl of solution containing TdT and FITC-conjugated dUTP deoxynucleotides 1:1 (Roche Diagnostic GmbH, Mannheim, Germany) in a humidified atmosphere for 90 min at 37° C. in the dark, washed in PBS, counterstained with propidium iodide (2.5 μg/ml, MP Biomedicals, Verona, Italy) and RNAse (10 Kunits/ml, Sigma Aldrich, Milan, Italy) for 30 min at 4° C. in the dark and analyzed by flow cytometry.
After the end of drug exposures, medium was removed and cells were detached from the flasks by trypsin treatment, washed twice with PBS and stained according to the different methods specified below. Flow cytometric analysis was performed using a FACS Canto flow cytometer (Becton Dickinson, San Diego, Calif.). Data acquisition and analysis were performed using FACSDiva software (Becton Dickinson). Samples were run in triplicate and 10,000 events were collected for each replica. Data were the average of three experiments, with errors under 5%.
The cells, before TUNEL assay, were continuously exposed to the anti-androgen compounds for 144 hours at the concentration of 20.0 μM.

[4] = system: HepG2 cells; assay: Cytotoxic activity on hepatoblastoma cell line HepG2; format: cell-based, human; conditions: up to highest concentration tested
Protocol: as §1, §2, §3
(§5) The authors evaluated in vitro the potential hepato-toxicity of some of the novel compounds on HepG2 cell line, a human hepatoblastoma cell line that retains the specialized function of normal hepatocytes [Knowles B B, et al., Science 1980, 209:497-499; Aden D P, et al., Nature, 1979, 282:615-616].

[5] = as above; format: cell-based, human; conditions: human, HepG2 cells
Protocol: as §1, §2, §3, §5

[6] = system: LNCaP-AR cells; assay: TUNEL assay of apoptotic cells in LNCaP-AR; format: cell-based, human; conditions: 20.0 μM; for Apoptotic cells (%): LNCaP-AR, 144-h exposure, TUNEL
[7] = system: normal stem cells derived from human peripheral blood stem cells; assay: Colony-forming cell assay (GM-CFU); format: cell-based; conditions: highest concentration tested, 14 days incubation
Protocol: The colony-forming cell assay was used as previously described [Motta M R et al., Exp Hematol 1997; 25:1261-1269]. In brief, for each molecule, 5×10^4 cells were plated in duplicate in a complete culture medium (MethoCult H4434, StemCell Technologies, Vancouver, Canada) containing different concentrations (0.2, 2, and 20 μmol/l) of the compound. After 14 days of incubation in a humidified atmosphere of 5% CO2 at the temperature of 37° C., granulocyte macrophage colony-forming unit (GM-CFU) aggregates of more than 50 cells were counted. Control cells were incubated under the same conditions but in drug-free medium.
The authors also evaluated the potential toxicity of some of the novel compounds in normal cells as the ability of the drugs to inhibit clonogenic growth of normal stem cells derived from human peripheral blood stem cells (FIG. 37). The exposure of hematopoietic precursor to the compounds, caused low ((S)-37) or negligible (, (R)-22, (R)-23, (R)-10) toxicity at the highest concentration tested.

[8] = system: PC-3; assay: SRB cytotoxicity on PC-3 cells; format: cell-based, human; conditions: PC-3 cells (no AR), 144 h exposure
Protocol: as §1, §2, §3, §4

Row | SMILES | cytotoxic properties compared to effects on LNCaP and LNCaP-AR cells [1] | GI50 [2] [µM] | LC50 [2] [µM] | cytocidal (cell killing) activity [2] | Apoptotic cells (%) [3] [%] | potential hepato-toxicity [4] | GI50 [5] [µM] | LC50 (concentration killing 50% of cells) [5] [µM] | Apoptotic cells (%) [6] [%] | toxicity: inhibition of clonogenic growth of hematopoietic precursors [7] | cytotoxic properties compared to effects on LNCaP and LNCaP-AR cells [8] | apoptosis induction in the LNCaP derivative cell line versus LNCaP ([6]; 144 h)
1 | N#Cc1ccc(N2C(=O)[C@](Cc3ccc(F)cc3)(c3ccccc3)NC2=S)cc1C(F)(F)F [(S)-37] | significant reduction in their cytotoxic proprieties | 5.8 | 16.8 | cytocidal activity | 93.4 | significant toxicity | 7.4 | 17.7 | 89.5 | low | significant reduction in their cytotoxic proprieties | 
2 | CS(=O)(=O)N[C@@](Cc1ccccc1)(CS(=O)(=O)c1ccc(F)cc1)C(=O)Nc1ccc(C#N)c(C(F)(F)F)c1 [(R)-10, (R)-2-benzyl-N-(4-cyano-3-(trifluoromethyl)phenyl)-3-(4-fluorophenylsulfonyl)-2-(methylsulfonamido)propanamide] | significant reduction in their cytotoxic proprieties | 7.4 | 17.7 | cytocidal activity | 35.5 | negligible toxicity |  |  | 42.7 | negligible | significant reduction in their cytotoxic proprieties | more active
